Laboratory results published in ChEMBL document CHEMBL4507320, “Data for DCP probe NVS-MALT1” (2021).

Key:
[1] = test system: Tyrosine-protein kinase ABL1 (Homo sapiens), P00519 [F317L]; details: Compound concentration 1000.0 nM
[2] = test system: Tyrosine-protein kinase ABL1 (Homo sapiens), P00519 [F317L]; details: Compound concentration 1000.0 nM; remark: listed apart in the source
[3] = molecular target: Activin receptor type-1B (Homo sapiens) (UniProt P36896); details: Compound concentration 1000.0 nM
[4] = molecular target: Activin receptor type-2B (Homo sapiens) (UniProt Q13705); details: Compound concentration 1000.0 nM
[5] = test system: ALK tyrosine kinase receptor (Homo sapiens), Q9UM73 [C1156Y]; details: Compound concentration 1000.0 nM
[6] = molecular target: Aurora kinase C (Homo sapiens) (UniProt Q9UQB9); details: Compound concentration 1000.0 nM
[7] = molecular target: Tyrosine-protein kinase Blk (Homo sapiens) (UniProt P51451); details: Compound concentration 1000.0 nM
[8] = molecular target: Cyclin-dependent kinase 8 (Homo sapiens) (UniProt P49336); details: Compound concentration 1000.0 nM
[9] = molecular target: Cyclin-dependent kinase-like 1 (Homo sapiens) (UniProt Q00532); details: Compound concentration 1000.0 nM
[10] = molecular target: Casein kinase II subunit alpha (Homo sapiens) (UniProt P68400); details: Compound concentration 1000.0 nM
[11] = molecular target: Ephrin type-A receptor 8 (Homo sapiens) (UniProt P29322); details: Compound concentration 1000.0 nM
[12] = molecular target: Mitogen-activated protein kinase 1 (Homo sapiens) (UniProt P28482); details: Compound concentration 1000.0 nM
[13] = molecular target: Tyrosine-protein kinase Fer (Homo sapiens) (UniProt P16591); details: Compound concentration 1000.0 nM
[14] = molecular target: Fibroblast growth factor receptor 1 (Homo sapiens) (UniProt P11362); details: Compound concentration 1000.0 nM
[15] = test system: Receptor-type tyrosine-protein kinase FLT3 (Homo sapiens), P36888 [D835V]; details: Compound concentration 1000.0 nM
[16] = molecular target: Tyrosine-protein kinase JAK1 (Homo sapiens) (UniProt P23458); details: Compound concentration 1000.0 nM
[17] = molecular target: Mast/stem cell growth factor receptor Kit (Homo sapiens) (UniProt P10721); details: Compound concentration 1000.0 nM
[18] = test system: Mast/stem cell growth factor receptor Kit (Homo sapiens), P10721 [V559D,T670I]; details: Compound concentration 1000.0 nM
[19] = molecular target: Tyrosine-protein kinase Lck (Homo sapiens) (UniProt P06239); details: Compound concentration 1000.0 nM
[20] = molecular target: Serine/threonine-protein kinase MARK2 (Homo sapiens) (UniProt Q7KZI7); details: Compound concentration 1000.0 nM
[21] = molecular target: Dual specificity mitogen-activated protein kinase kinase 2 (Homo sapiens) (UniProt P36507); details: Compound concentration 1000.0 nM
[22] = molecular target: MAP kinase-interacting serine/threonine-protein kinase 1 (Homo sapiens) (UniProt Q9BUB5); details: Compound concentration 1000.0 nM
[23] = molecular target: Serine/threonine-protein kinase 4 (Homo sapiens) (UniProt Q13043); details: Compound concentration 1000.0 nM
[24] = molecular target: Serine/threonine-protein kinase Nek1 (Homo sapiens) (UniProt Q96PY6); details: Compound concentration 1000.0 nM
[25] = molecular target: Serine/threonine-protein kinase Nek9 (Homo sapiens) (UniProt Q8TD19); details: Compound concentration 1000.0 nM
[26] = molecular target: Serine/threonine-protein kinase PAK 6 (Homo sapiens) (UniProt Q9NQU5); details: Compound concentration 1000.0 nM
[27] = molecular target: Cyclin-dependent kinase 14 (Homo sapiens) (UniProt O94921); details: Compound concentration 1000.0 nM
[28] = test system: Phosphatidylinositol 4,5-bisphosphate 3-kinase catalytic subunit alpha isoform (Homo sapiens), P42336 [H1047L]; details: Compound concentration 1000.0 nM
[29] = test system: Phosphatidylinositol 4,5-bisphosphate 3-kinase catalytic subunit alpha isoform (Homo sapiens), P42336 [H1047Y]; details: Compound concentration 1000.0 nM
[30] = molecular target: cGMP-dependent protein kinase 1 (Homo sapiens) (UniProt Q13976); details: Compound concentration 1000.0 nM
[31] = molecular target: cGMP-dependent protein kinase 2 (Homo sapiens) (UniProt Q13237); details: Compound concentration 1000.0 nM
[32] = molecular target: Rho-associated protein kinase 1 (Homo sapiens) (UniProt Q13464); details: Compound concentration 1000.0 nM
[33] = molecular target: Rho-associated protein kinase 2 (Homo sapiens) (UniProt O75116); details: Compound concentration 1000.0 nM
[34] = molecular target: Ribosomal protein S6 kinase alpha-6 (Homo sapiens) (UniProt Q9UK32); details: Compound concentration 1000.0 nM
[35] = molecular target: NUAK family SNF1-like kinase 2 (Homo sapiens) (UniProt Q9H093); details: Compound concentration 1000.0 nM
[36] = molecular target: Serine/threonine-protein kinase 33 (Homo sapiens) (UniProt Q9BYT3); details: Compound concentration 1000.0 nM
[37] = molecular target: Angiopoietin-1 receptor (Homo sapiens) (UniProt Q02763); details: Compound concentration 1000.0 nM
[38] = molecular target: Tyrosine-protein kinase TXK (Homo sapiens) (UniProt P42681); details: Compound concentration 1000.0 nM
[39] = molecular target: Tyrosine-protein kinase receptor TYRO3 (Homo sapiens) (UniProt Q06418); details: Compound concentration 1000.0 nM
[40] = molecular target: Serine/threonine-protein kinase ULK3 (Homo sapiens) (UniProt Q6PHR2); details: Compound concentration 1000.0 nM
[41] = molecular target: Wee1-like protein kinase 2 (Homo sapiens) (UniProt P0C1S8); details: Compound concentration 1000.0 nM
[42] = molecular target: Serine/threonine-protein kinase 25 (Homo sapiens) (UniProt O00506); details: Compound concentration 1000.0 nM
[43] = molecular target: Tyrosine-protein kinase ZAP-70 (Homo sapiens) (UniProt P43403); details: Compound concentration 1000.0 nM
[44] = molecular target: 5-hydroxytryptamine receptor 2C (Homo sapiens) (UniProt P28335); details: Compound concentration 10.0 uM
[45] = molecular target: Histamine H1 receptor (Homo sapiens) (UniProt P35367); details: Compound concentration 10.0 uM

Chain of Tyrosine-protein kinase ABL1 (Homo sapiens), P00519 [F317L] (P00519 whole entry F317L): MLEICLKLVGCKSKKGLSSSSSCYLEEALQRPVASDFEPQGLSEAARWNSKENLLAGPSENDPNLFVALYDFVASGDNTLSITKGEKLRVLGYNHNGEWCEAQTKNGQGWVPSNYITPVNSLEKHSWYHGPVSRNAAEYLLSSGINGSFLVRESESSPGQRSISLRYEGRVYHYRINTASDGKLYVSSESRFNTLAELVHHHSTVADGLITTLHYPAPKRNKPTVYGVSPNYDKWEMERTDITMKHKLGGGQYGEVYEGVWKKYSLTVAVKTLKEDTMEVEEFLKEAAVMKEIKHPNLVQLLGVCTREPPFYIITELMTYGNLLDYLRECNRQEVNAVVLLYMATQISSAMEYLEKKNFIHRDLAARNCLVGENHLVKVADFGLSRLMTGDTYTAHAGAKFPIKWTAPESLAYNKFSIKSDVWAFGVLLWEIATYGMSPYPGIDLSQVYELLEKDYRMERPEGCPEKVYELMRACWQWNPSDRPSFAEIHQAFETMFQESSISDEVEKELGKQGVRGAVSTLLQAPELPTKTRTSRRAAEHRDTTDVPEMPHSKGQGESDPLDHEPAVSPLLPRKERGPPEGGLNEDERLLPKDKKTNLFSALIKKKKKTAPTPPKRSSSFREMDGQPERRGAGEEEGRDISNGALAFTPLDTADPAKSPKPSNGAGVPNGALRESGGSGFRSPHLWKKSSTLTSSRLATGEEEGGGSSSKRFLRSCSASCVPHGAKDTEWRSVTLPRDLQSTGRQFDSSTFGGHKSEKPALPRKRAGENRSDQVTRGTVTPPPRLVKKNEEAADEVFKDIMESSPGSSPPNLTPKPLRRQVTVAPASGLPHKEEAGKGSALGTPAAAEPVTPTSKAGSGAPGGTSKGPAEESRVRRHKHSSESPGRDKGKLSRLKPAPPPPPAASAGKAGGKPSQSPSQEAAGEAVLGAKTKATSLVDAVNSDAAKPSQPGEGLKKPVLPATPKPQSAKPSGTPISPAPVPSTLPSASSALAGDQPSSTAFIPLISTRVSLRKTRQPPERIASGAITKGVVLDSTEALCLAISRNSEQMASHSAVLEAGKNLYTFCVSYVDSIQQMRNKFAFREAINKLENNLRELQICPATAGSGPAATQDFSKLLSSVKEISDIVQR
Chain of 5-hydroxytryptamine receptor 2C (Homo sapiens) (P28335 whole entry): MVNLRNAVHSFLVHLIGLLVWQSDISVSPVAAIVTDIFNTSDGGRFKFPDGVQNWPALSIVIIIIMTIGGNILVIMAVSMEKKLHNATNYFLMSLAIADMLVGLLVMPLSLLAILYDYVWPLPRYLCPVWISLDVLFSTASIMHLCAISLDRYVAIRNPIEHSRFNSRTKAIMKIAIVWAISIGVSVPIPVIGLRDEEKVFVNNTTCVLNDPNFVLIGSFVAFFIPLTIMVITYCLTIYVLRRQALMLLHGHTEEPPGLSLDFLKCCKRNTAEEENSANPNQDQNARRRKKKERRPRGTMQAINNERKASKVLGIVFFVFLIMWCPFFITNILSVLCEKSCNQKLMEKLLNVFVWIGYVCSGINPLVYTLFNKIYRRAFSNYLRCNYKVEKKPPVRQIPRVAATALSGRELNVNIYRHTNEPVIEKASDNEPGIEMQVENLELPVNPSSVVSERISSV
Chain of Rho-associated protein kinase 1 (Homo sapiens) (Q13464 2-1354 limits assumed): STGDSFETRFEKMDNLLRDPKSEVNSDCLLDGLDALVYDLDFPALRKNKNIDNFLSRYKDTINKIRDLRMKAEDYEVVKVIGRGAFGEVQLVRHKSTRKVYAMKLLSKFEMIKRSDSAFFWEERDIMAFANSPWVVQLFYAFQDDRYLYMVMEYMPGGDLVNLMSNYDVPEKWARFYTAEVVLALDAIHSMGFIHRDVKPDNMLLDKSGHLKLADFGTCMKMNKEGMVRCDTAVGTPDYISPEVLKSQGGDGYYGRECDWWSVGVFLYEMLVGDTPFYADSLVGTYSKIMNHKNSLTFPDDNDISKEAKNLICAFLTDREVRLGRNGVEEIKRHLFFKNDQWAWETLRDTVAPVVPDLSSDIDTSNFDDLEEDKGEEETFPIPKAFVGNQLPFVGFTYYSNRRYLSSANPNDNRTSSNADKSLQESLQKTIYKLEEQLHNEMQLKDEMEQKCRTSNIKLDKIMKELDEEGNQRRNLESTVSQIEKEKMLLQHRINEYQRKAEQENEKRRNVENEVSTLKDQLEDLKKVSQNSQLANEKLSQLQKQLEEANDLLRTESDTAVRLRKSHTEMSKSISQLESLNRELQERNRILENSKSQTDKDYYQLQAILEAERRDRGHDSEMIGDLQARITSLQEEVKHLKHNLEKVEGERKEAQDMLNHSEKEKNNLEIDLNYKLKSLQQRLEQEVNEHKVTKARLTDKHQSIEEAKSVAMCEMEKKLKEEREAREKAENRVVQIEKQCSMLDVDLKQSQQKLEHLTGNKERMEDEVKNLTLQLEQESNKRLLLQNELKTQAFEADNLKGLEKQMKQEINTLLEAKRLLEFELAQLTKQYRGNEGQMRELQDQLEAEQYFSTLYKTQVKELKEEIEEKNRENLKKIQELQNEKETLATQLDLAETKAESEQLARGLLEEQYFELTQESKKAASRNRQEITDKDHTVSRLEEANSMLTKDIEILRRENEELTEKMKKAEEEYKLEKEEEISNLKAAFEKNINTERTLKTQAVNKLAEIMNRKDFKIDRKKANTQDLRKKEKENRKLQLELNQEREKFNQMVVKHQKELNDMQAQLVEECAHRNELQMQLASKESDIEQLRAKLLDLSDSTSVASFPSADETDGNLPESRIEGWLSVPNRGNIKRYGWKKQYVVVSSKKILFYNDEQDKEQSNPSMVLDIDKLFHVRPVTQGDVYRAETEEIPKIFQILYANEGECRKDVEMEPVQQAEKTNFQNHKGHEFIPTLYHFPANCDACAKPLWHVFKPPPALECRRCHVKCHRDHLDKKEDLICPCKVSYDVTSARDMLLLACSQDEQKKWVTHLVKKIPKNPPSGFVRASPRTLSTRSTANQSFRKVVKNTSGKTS
Chain of Serine/threonine-protein kinase Nek1 (Homo sapiens) (Q96PY6 whole entry): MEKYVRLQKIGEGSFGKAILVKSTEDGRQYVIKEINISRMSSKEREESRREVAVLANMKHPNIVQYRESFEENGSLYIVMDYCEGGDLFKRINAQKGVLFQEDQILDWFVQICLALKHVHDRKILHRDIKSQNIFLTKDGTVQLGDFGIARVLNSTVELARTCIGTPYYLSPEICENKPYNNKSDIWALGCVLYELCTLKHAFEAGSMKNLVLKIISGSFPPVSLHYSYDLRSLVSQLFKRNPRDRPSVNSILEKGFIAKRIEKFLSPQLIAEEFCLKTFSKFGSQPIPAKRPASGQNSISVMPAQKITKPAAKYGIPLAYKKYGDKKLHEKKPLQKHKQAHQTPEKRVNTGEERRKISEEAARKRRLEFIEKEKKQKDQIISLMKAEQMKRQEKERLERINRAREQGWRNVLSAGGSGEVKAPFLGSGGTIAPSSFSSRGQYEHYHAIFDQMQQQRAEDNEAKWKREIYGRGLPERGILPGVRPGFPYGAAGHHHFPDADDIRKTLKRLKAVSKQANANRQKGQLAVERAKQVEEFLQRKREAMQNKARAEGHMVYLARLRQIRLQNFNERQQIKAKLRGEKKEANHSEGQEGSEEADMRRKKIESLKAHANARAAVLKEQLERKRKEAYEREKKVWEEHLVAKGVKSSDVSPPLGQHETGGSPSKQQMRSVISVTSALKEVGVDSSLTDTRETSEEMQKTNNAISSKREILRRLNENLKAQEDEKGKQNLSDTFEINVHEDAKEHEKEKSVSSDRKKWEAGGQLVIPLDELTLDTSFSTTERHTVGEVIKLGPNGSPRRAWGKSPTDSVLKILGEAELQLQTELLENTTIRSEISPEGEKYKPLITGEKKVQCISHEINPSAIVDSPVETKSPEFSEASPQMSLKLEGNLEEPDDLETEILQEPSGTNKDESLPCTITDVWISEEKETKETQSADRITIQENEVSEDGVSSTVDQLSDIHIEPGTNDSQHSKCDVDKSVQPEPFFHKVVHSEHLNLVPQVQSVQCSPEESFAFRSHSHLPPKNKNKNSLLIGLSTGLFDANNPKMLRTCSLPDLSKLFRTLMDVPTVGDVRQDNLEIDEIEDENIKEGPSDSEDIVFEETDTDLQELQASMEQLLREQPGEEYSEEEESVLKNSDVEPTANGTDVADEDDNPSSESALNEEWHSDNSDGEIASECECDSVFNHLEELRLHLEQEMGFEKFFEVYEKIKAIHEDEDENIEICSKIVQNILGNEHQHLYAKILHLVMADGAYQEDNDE
Chain of MAP kinase-interacting serine/threonine-protein kinase 1 (Homo sapiens) (Q9BUB5 whole entry, looked up): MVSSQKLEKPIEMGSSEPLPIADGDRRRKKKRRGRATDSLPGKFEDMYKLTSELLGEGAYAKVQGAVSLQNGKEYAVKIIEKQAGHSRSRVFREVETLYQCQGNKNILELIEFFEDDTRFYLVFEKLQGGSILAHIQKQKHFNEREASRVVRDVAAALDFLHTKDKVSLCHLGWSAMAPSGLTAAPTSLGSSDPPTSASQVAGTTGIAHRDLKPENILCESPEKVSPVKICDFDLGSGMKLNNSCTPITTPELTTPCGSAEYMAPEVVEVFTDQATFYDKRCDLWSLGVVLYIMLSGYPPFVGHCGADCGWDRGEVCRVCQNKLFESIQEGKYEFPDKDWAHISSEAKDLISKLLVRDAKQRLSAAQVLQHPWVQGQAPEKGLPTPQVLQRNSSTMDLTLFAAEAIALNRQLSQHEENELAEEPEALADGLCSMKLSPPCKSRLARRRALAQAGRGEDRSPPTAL
Chain of Mitogen-activated protein kinase 1 (Homo sapiens) (P28482 whole entry): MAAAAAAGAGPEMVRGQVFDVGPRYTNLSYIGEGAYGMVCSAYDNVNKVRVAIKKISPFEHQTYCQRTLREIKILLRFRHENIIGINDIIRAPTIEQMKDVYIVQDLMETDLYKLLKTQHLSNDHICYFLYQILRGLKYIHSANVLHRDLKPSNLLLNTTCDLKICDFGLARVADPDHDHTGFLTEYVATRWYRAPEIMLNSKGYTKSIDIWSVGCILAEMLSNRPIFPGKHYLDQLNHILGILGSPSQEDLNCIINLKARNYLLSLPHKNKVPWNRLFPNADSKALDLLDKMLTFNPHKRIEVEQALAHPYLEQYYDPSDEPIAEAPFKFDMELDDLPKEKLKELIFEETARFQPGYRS

CO[C@@H](C)c1c(Nc2ccc([C@H](N(C)C(=O)C3CCS(=O)(=O)CC3)C(F)(F)F)cc2)cnc2cc(Cl)nn12 [NVS-MALT1]
residual activity [1]: 100%
residual activity [2]: 89%
residual activity [3]: 72%
residual activity [4]: 66%
residual activity [5]: 89%
residual activity [6]: 77%
residual activity [7]: 87%
residual activity [8]: 39%
residual activity [9]: 57%
residual activity [10]: 100%
residual activity [11]: 91%
residual activity [12]: 100%
residual activity [13]: 88%
residual activity [14]: 74%
residual activity [15]: 59%
residual activity [16]: 100%
residual activity [17]: 100%
residual activity [18]: 86%
residual activity [19]: 83%
residual activity [20]: 100%
residual activity [21]: 96%
residual activity [22]: 100%
residual activity [23]: 100%
residual activity [24]: 94%
residual activity [25]: 77%
residual activity [26]: 100%
residual activity [27]: 100%
residual activity [28]: 92%
residual activity [29]: 62%
residual activity [30]: 85%
residual activity [31]: 100%
residual activity [32]: 100%
residual activity [33]: 100%
residual activity [34]: 91%
residual activity [35]: 100%
residual activity [36]: 51%
residual activity [37]: 84%
residual activity [38]: 87%
residual activity [39]: 100%
residual activity [40]: 94%
residual activity [41]: 88%
residual activity [42]: 87%
residual activity [43]: 100%
inhibition [44]: -4.22%
inhibition [45]: 10.2%

CO[C@@H](C)c1c(Nc2ccc([C@@H](N(C)C(=O)C3CCS(=O)(=O)CC3)C(F)(F)F)cc2)cnc2cc(Cl)nn12 [NVS-MALT1-C]
residual activity [1]: 100%
residual activity [2]: 89%
residual activity [3]: 100%
residual activity [4]: 100%
residual activity [5]: 79%
residual activity [6]: 85%
residual activity [7]: 56%
residual activity [8]: 96%
residual activity [9]: 74%
residual activity [10]: 100%
residual activity [11]: 91%
residual activity [12]: 100%
residual activity [13]: 89%
residual activity [14]: 91%
residual activity [15]: 52%
residual activity [16]: 89%
residual activity [17]: 100%
residual activity [18]: 82%
residual activity [19]: 84%
residual activity [20]: 100%
residual activity [21]: 97%
residual activity [22]: 100%
residual activity [23]: 100%
residual activity [24]: 100%
residual activity [25]: 90%
residual activity [26]: 100%
residual activity [27]: 99%
residual activity [28]: 98%
residual activity [29]: 52%
residual activity [30]: 92%
residual activity [31]: 100%
residual activity [32]: 100%
residual activity [33]: 100%
residual activity [34]: 98%
residual activity [35]: 100%
residual activity [36]: 51%
residual activity [37]: 90%
residual activity [38]: 84%
residual activity [39]: 99%
residual activity [40]: 97%
residual activity [41]: 100%
residual activity [42]: 84%
residual activity [43]: 100%
inhibition [44]: 3.25%
inhibition [45]: -9.88%
